PMC8305873, “Design and heterologous expression of a novel dimeric LL37 variant in Pichia pastoris” (Microbial Cell Factories, 2021)
≈ marks a conversion by molar mass, not a printed value. Read-outs that look alike come from different tables or passages of the source. Where a SMILES comes first, the peptide text is derived from it.

Assays:
S. aureus ATCC 25923 = format: cell-based, Staphylococcus aureus; conditions: ATCC 25923
Experimental: (§1) All experiments were conducted at least three different times.

S. aureus ATCC 29213 = format: cell-based, Staphylococcus aureus; conditions: ATCC 29213
Experimental: as §1

E. coli ATCC 078 = format: cell-based, Escherichia coli; conditions: ATCC 078
Experimental: as §1

E. coli ATCC 25922 [1] = format: cell-based, Escherichia coli; conditions: ATCC 25922
Experimental: as §1

E. coli UB 1005 = format: cell-based, Escherichia coli
Experimental: as §1

[2] = system: S. Typhimurium ATCC 14028; format: cell-based, Salmonella Typhimurium; conditions: ATCC 14028
Experimental: as §1

S. Typhimurium C 7731 = format: cell-based, Salmonella Typhimurium; conditions: C 7731
Experimental: as §1

P. aeruginosa ATCC 27853 = format: cell-based, Pseudomonas aeruginosa; conditions: ATCC 27853
Experimental: as §1

[3] = system: S. epidermidis ATCC 12228; format: cell-based, Staphylococcus epidermidis; conditions: ATCC 12228
Experimental: as §1

S. faecalis ATCC 29212 = format: cell-based, Streptococcus faecalis; conditions: ATCC 29212
Experimental: as §1

bacteria = conditions: when no antimicrobial activity is detected at 32 µM, 64 µM is used
Experimental: The minimum inhibitory concentration (MIC) is a vital indicator for evaluating the antimicrobial activity of AMPs. The determination method refers to the improved method of Dong et al.. The strains to be tested were inoculated in Mueller Hinton broth (MHB) medium and cultured at 200 rpm and 37 °C until the logarithmic growth phase, and then the number of colonies was adjusted to approximately 10^5 CFU/mL. The 95 µL of bovine serum albumin (BSA) diluent (0.01% acetic acid and 0.2% BSA) and 5 µL of peptide (1.28 mM) were added to the first row of the 96-well plate, and 50 µL of BSA diluent was added to the other columns. After mixing in the first row, 50 µL of the mixture was aspirated and added to the second column and so on to the 11th row. After being cultured at 37 °C for 18–24 h, the minimum peptide concentration required to inhibit bacterial growth was the MIC value. All experiments were conducted at least three different times.
The safety of peptides is usually assessed by hemolytic activity. The collected blood of type B from healthy donor was centrifuged at 1000×g for 5 min to collect red blood cells. The red blood cells were then washed and resuspended in 10 mM PBS (pH 7.4). Fifty microliters of diluted red blood cells and an equal volume of peptide solution (2–128 µM) were incubated in a 96-well plate at 37 °C for 1 h. The red blood cell suspension treated with 0.1% Triton X-100 was used as a positive control (100% hemolysis), and untreated blood cell suspension was used as a negative control. The 96-well plate was centrifuged at 1000×g for 5 min at 4 °C, and then the supernatant was transferred to a new 96-well plate. The absorbance at OD570 was measured with a microplate reader.

human red blood cells = test: Hemolytic activity assay; format: cell-based; conditions: for MHC (minimum hemolysis concentration): concentration of peptide that causes 20% hemolysis, human red blood cells in 10 mM PBS pH 7.4, 37 °C 1 h, OD570
E. coli ATCC 25922 [4] = format: cell-based, Escherichia coli; conditions: ATCC 25922; remark: listed apart in the source
E. coli ATCC 25922 [5] = format: cell-based, Escherichia coli; conditions: ATCC 25922; remark: listed apart in the source
Experimental: as §1
The salt ions were added to the BSA solution and configured into different final concentrations of salt ions (150 mM NaCl, 4.5 mM KCl, 6 µM NH4Cl, 8 µM ZnCl2, 1 mM MgCl2, 2 mM CaCl2, and 4 µM FeCl3) solutions. The method discribed as above was referred to determine the MIC value of rLG against E. coli ATCC 25922 in the presence of different concentrations of salt ions.

Row | Structure (SMILES) | MIC (S. aureus ATCC 25923) | MIC (S. aureus ATCC 29213) | MIC (E. coli ATCC 078) | MIC (E. coli ATCC 25922 [1]) | MIC (E. coli UB 1005; UB 1005) | MIC [2] | MIC (S. Typhimurium C 7731) | MIC (P. aeruginosa ATCC 27853) | MIC [3] | MIC (S. faecalis ATCC 29212) | GM (geometric mean of the MIC value of the peptide against bacteria) (bacteria) | MHC (minimum hemolysis concentration) (human red blood cells) | further results
1 | CC[C@H](C)[C@H](NC(=O)[C@H](CCCNC(=N)N)NC(=O)[C@H](CCC(N)=O)NC(=O)[C@@H](NC(=O)[C@@H](NC(=O)[C@H](CCCNC(=N)N)NC(=O)[C@H](CCCCN)NC(=O)[C@H](Cc1ccccc1)NC(=O)[C@H](CCCNC(=N)N)NC(=O)[C@H](CC(C)C)NC(=O)[C@H](Cc1ccccc1)NC(=O)[C@H](CCCNC(=N)N)NC(=O)[C@H](CCCCN)NC(=O)[C@@H](NC(=O)[C@H](CCCNC(=N)N)NC(=O)[C@H](CCC(N)=O)NC(=O)[C@@H](NC(=O)[C@@H](NC(=O)[C@H](CCCNC(=N)N)NC(=O)[C@H](CCCCN)NC(=O)[C@@H](N)Cc1ccccc1)[C@@H](C)CC)C(C)C)[C@@H](C)CC)[C@@H](C)CC)C(C)C)C(=O)N[C@@H](CCCCN)C(=O)N[C@@H](CCCNC(=N)N)C(=O)N[C@@H](Cc1ccccc1)C(=O)N[C@@H](CC(C)C)C(=O)N[C@@H](CCCNC(=N)N)C(=O)O [(FR)2] (H-FKRIVQRIKRFLRFKRIVQRIKRFLR-OH) | 3.78 ± 0.63 µM (≈ 13.2 µg/mL) | 2.00 ± 0.00 µM (≈ 7 µg/mL) | 1.11 ± 0.31 µM (≈ 3.89 µg/mL) | 1.22 ± 0.41 µM (≈ 4.27 µg/mL) | 1.00 ± 0.00 µM (≈ 3.5 µg/mL) | 2.22 ± 0.63 µM (≈ 7.78 µg/mL) | 1.11 ± 0.31 µM (≈ 3.89 µg/mL) | 2.22 ± 0.63 µM (≈ 7.78 µg/mL) | 2.00 ± 0.00 µM (≈ 7 µg/mL) | 2.00 ± 0.00 µM (≈ 7 µg/mL) | 1.62 µM | 16 µM | hemolysis (blood cells destroyed) (human red blood cells; at the highest peptide concentration (128 μM), human red blood cells, 37 °C 1 h, 0.1% Triton X-100 = 100%): approximately 43%
2 | CC[C@H](C)[C@H](NC(=O)[C@H](CCCNC(=N)N)NC(=O)[C@H](CCC(N)=O)NC(=O)[C@@H](NC(=O)[C@@H](NC(=O)[C@H](CCCNC(=N)N)NC(=O)[C@H](CCCCN)NC(=O)[C@@H](N)Cc1ccccc1)[C@@H](C)CC)C(C)C)C(=O)N[C@@H](CCCCN)C(=O)N[C@@H](CC(=O)O)C(=O)N[C@@H](Cc1ccccc1)C(=O)N[C@@H](CC(C)C)C(=O)N[C@@H](CCCNC(=N)N)C(=O)O [FD] (H-FKRIVQRIKDFLR-OH) | > 32 µM | > 32 µM | 16.00 ± 0.00 µM (≈ 27.5 µg/mL) | 32.00 ± 0.00 µM (≈ 55 µg/mL) | 16.00 ± 0.00 µM (≈ 27.5 µg/mL) | 32.00 ± 0.00 µM (≈ 55 µg/mL) | 32.00 ± 0.00 µM (≈ 55 µg/mL) | > 32 µM | > 32 µM | > 32 µM | – | – | –
3 | CC[C@H](C)[C@H](NC(=O)[C@H](CCCNC(=N)N)NC(=O)[C@H](CCC(N)=O)NC(=O)[C@@H](NC(=O)[C@@H](NC(=O)[C@H](CCCNC(=N)N)NC(=O)[C@H](CCCCN)NC(=O)[C@H](Cc1ccccc1)NC(=O)[C@H](CO)NC(=O)CNC(=O)CNC(=O)CNC(=O)CNC(=O)[C@H](CCCNC(=N)N)NC(=O)[C@H](CC(C)C)NC(=O)[C@H](Cc1ccccc1)NC(=O)[C@H](CCCNC(=N)N)NC(=O)[C@H](CCCCN)NC(=O)[C@@H](NC(=O)[C@H](CCCNC(=N)N)NC(=O)[C@H](CCC(N)=O)NC(=O)[C@@H](NC(=O)[C@@H](NC(=O)[C@H](CCCNC(=N)N)NC(=O)[C@H](CCCCN)NC(=O)[C@@H](N)Cc1ccccc1)[C@@H](C)CC)C(C)C)[C@@H](C)CC)[C@@H](C)CC)C(C)C)C(=O)N[C@@H](CCCCN)C(=O)N[C@@H](CCCNC(=N)N)C(=O)N[C@@H](Cc1ccccc1)C(=O)N[C@@H](CC(C)C)C(=O)N[C@@H](CCCNC(=N)N)C(=O)O [LG] (H-FKRIVQRIKRFLRGGGGSFKRIVQRIKRFLR-OH) | – | – | – | – | 1.22 ± 0.41 µM (≈ 4.66 µg/mL) | – | – | – | – | – | 2.00 µM | 64 µM | MIC (E. coli UB 1005; Table 3, recombinant vs synthetic LG, mean ± SD of three independent experiments): 1.33 ± 0.25 µM
4 | CC[C@H](C)[C@H](NC(=O)[C@H](CCCNC(=N)N)NC(=O)[C@H](CCC(N)=O)NC(=O)[C@@H](NC(=O)[C@@H](NC(=O)[C@H](CCCNC(=N)N)NC(=O)[C@H](CCCCN)NC(=O)[C@H](Cc1ccccc1)NC(=O)[C@H](C)NC(=O)[C@H](CCCCN)NC(=O)[C@H](C)NC(=O)[C@H](C)NC(=O)[C@H](C)NC(=O)[C@H](CCC(=O)O)NC(=O)[C@H](C)NC(=O)[C@H](CCCNC(=N)N)NC(=O)[C@H](CC(C)C)NC(=O)[C@H](Cc1ccccc1)NC(=O)[C@H](CCCNC(=N)N)NC(=O)[C@H](CCCCN)NC(=O)[C@@H](NC(=O)[C@H](CCCNC(=N)N)NC(=O)[C@H](CCC(N)=O)NC(=O)[C@@H](NC(=O)[C@@H](NC(=O)[C@H](CCCNC(=N)N)NC(=O)[C@H](CCCCN)NC(=O)[C@@H](N)Cc1ccccc1)[C@@H](C)CC)C(C)C)[C@@H](C)CC)[C@@H](C)CC)C(C)C)C(=O)N[C@@H](CCCCN)C(=O)N[C@@H](CCCNC(=N)N)C(=O)N[C@@H](Cc1ccccc1)C(=O)N[C@@H](CC(C)C)C(=O)N[C@@H](CCCNC(=N)N)C(=O)O [LA] (H-FKRIVQRIKRFLRAEAAAKAFKRIVQRIKRFLR-OH) | > 32 µM | > 32 µM | 2.44 ± 0.83 µM (≈ 10 µg/mL) | 2.22 ± 0.63 µM (≈ 9.14 µg/mL) | 1.11 ± 0.31 µM (≈ 4.57 µg/mL) | 4.44 ± 1.25 µM (≈ 18.3 µg/mL) | 1.11 ± 0.31 µM (≈ 4.57 µg/mL) | 4.44 ± 1.25 µM (≈ 18.3 µg/mL) | > 32 µM | > 32 µM | 8.00 µM | 32 µM | –
5 | CC[C@H](C)[C@H](NC(=O)[C@H](CCCNC(=N)N)NC(=O)[C@H](CCC(N)=O)NC(=O)[C@@H](NC(=O)[C@@H](NC(=O)[C@H](CCCNC(=N)N)NC(=O)[C@H](CCCCN)NC(=O)[C@@H](N)Cc1ccccc1)[C@@H](C)CC)C(C)C)C(=O)N[C@@H](CCCCN)C(=O)N[C@@H](CCCNC(=N)N)C(=O)N[C@@H](Cc1ccccc1)C(=O)N[C@@H](CC(C)C)C(=O)N[C@@H](CCCNC(=N)N)C(=O)O [FR] (H-FKRIVQRIKRFLR-OH) | 16.00 ± 0.00 µM (≈ 28.2 µg/mL) | 8.00 ± 0.00 µM (≈ 14.1 µg/mL) | 8.00 ± 0.00 µM (≈ 14.1 µg/mL) | 7.11 ± 1.66 µM (≈ 12.5 µg/mL) | 2.44 ± 0.83 µM (≈ 4.29 µg/mL) | 8.00 ± 0.00 µM (≈ 14.1 µg/mL) | 8.00 ± 0.00 µM (≈ 14.1 µg/mL) | 16.00 ± 0.00 µM (≈ 28.2 µg/mL) | 3.78 ± 0.63 µM (≈ 6.65 µg/mL) | 4.00 ± 0.00 µM (≈ 7.04 µg/mL) | – | – | MIC, Control (E. coli ATCC 25922 [4]): 8 µM (≈ 14.1 µg/mL); MIC under physiological salt concentration, CaCl2 (E. coli ATCC 25922 [5]): > 32 µM; MIC under physiological salt concentration, FeCl3 (E. coli ATCC 25922 [5]): 16 µM; MIC under physiological salt concentration, GM (E. coli ATCC 25922 [5]): 19.50 µM; MIC under physiological salt concentration, KCl (E. coli ATCC 25922 [5]): 8 µM; MIC under physiological salt concentration, MgCl2 (E. coli ATCC 25922 [5]): 32 µM; MIC under physiological salt concentration, NH4Cl (E. coli ATCC 25922 [5]): 8 µM; MIC under physiological salt concentration, NaCl (E. coli ATCC 25922 [5]): > 32 µM; MIC under physiological salt concentration, ZnCl2 (E. coli ATCC 25922 [5]): 8 µM
